{"source": "paper PMC6959561", "about": "“Expression of acyl-CoA-binding protein 5 from Rhodnius prolixus and its inhibition by RNA interference” (PLoS ONE, 2020)", "target": "T1, RpACBP-5 (acyl-CoA-binding protein 5) (Rhodnius prolixus, UniProt M4WG04)", "T1 construct": "recombinant RpACBP-5 expressed in E. coli BL21 (DE3) (GenBank KC417418; 261 bp)", "T1 sequence (M4WG04 entry or part of it)": "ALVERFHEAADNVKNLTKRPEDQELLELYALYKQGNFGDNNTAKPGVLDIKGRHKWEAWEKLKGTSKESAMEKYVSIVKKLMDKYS", "assay": "isothermal titration calorimetry (VP-ITC, […]°C, pH […])", "data": [{"smiles": "CCCCCCCCCCCC(=O)SCCNC(=O)CCNC(=O)[C@H](O)C(C)(C)COP(=O)(O)OP(=O)(O)OC[C@H]1O[C@@H](n2cnc3c(N)ncnc32)[C@H](O)[C@@H]1OP(=O)(O)O", "note": "[lauroyl-CoA]", "values": [{"measurement": "Kd", "value": "399 ± 266", "unit": "nM"}]}]}
